Test results reported in patent US11389465B2, “Phosphorylated hexaacyl disaccharides (PHADs) for treating or preventing infections” (VANDERBILT UNIVERSITY, priority 2017, dated 2022).

Legend:
[1] = Physiological response of burned sheep to MPLA infusion (FIG. 7); assay type: in vivo
Procedure: FIG. 7. MPLA infusion causes transient physiologic changes in burned sheep. Sheep received 20% total body surface area burn followed 24 hours later by vehicle or MPLA ([…]) infusion. Core body temperature, hemodynamics and pulmonary mechanics were measured for 2 hours after initiation of MPLA or vehicle infusions. […] A transient increase in heart rate (HR) and decrease in mean arterial blood pressure (MAP) were also observed in MPLA-treated sheep.
Sheep were instrumented and received a 20% cutaneous burn. At 24 hours after the burn procedure, MPLA (5 ug/kg) was infused in 10 ml of endotoxin-free lactated Ringer's solution over 10 minutes. The sheep developed a transient 1° C. increase in core temperature at 1 hour after the start of infusion (FIG. 7).

P. aeruginosa [2] = conditions: 20 μg IP on 2 consecutive days, compared to vehicle
[3] = test system: Bone marrow derived macrophages (BMDMs); test: Metabolic reprogramming of bone marrow derived macrophages by MPLA (FIG. 11); assay type: cell-based; conditions: 1 μg/mL MPLA for 24 hours
Procedure: FIG. 11. MPLA drives persistent and dynamic metabolic reprogramming in macrophages. A) Bone marrow derived macrophages (BMDMs) were primed with 1 μg/mL MPLA for 24 hours, washed, and rested for 3 days (3 dp macrophages). These macrophages were compared to BMDMs stimulated with 1 μg/mL MPLA for 24 hours prior to assessment (24 hr macrophages) and untreated BMDMs (control). B) Glycolysis stress test of macrophages as determined by the Seahorse Xf^e96. C) Maximal extracellular acidification rate (ECAR) derived after the addition of oligomycin in the glycolysis stress test D) Glucose consumed from BMDMs over 24 hours, as determined by glucose concentration in cell-free medium subtracted by cell-containing medium. E) Lactate produced by BMDMs over 24 hours, as determined by lactate in cell-containing medium subtracted by cell free medium. F) Basal oxygen consumption rate (OCR) determined after the addition of glucose in the glycolysis stress test. G) Mitochondrial stress test of BMDMs as determined by the Seahorse Xfi96. H) Maximal oxidative rate derived after the addition of FCCP in the mitochondrial stress test. I) Intracellular ATP from BMDMs as determined by luminescence assay. Some BMDMs were exposed to 10 mM 2-DG or IlpM oligomycin for 3 hours prior to the assay. J) MitoTracker Green staining of BMDMs as determined by flow cytometry. K) Mitochondrial DNA (mtDNA)/nuclear DNA (nucDNA) as determined by qPCR. L) Succinate dehydrogenase (SDHA), citrate synthase (CS), and β-actin as determined by western blot. All bands shown derived from the same samples. […] Densitometry of SDHA and CS compared to β-actin derived from ImageJ shown. All experiments replicated at least twice. Data shown as mean+/−SEM. *, p<0.05 as determined by ANOVA with Tukey's post-hoc multiple comparison analysis.

S. aureus = test: Systemic (intravenous) S. aureus infection in MPLA-primed mice (FIG. 2); assay type: in vivo; conditions: MPLA 20 μg
Procedure: FIG. 2. MPLA induces resistance to S. aureus and C. albicans infection. A) WT BALB/c mice were injected with intravenous MPLA (20 μg/mouse) or vehicle one and two days prior to intravenous inoculation with intravenous 10^8 cfu S. aureus or 10^8 cfu C. albicans. B) Kaplan Meier survival curve of vehicle- and MPLA-primed mice. (n=12 mice/group) after S. aureus inoculation. C) Core (rectal) body temperature assessed daily after S. aureus inoculation. D) S. aureus cfu per gram of tissue recoverable from whole spleen, lung, and kidney in vehicle and MPLA-primed mice at 3 days after S. aureus inoculation. E) Concentration of serum IL-6 2 hours after S. aureus inoculation or vehicle. F) Concentration of serum BUN 3 days after S. aureus inoculation or vehicle. G) Kaplan Meier survival curve of vehicle- and MPLA-primed mice. (n=12 mice/group) after intravenous 10^8 cfu C. albicans inoculation. H) Core (rectal) body temperature after C. albicans inoculation. Data shown as mean+/−SEM. For Kaplan-Meier plots *, p<0.05 via log-rank Mantel-Cox test. Otherwise, *, p<0.05 as determined by ANOVA with Tukey's post-hoc multiple comparison test.
MPLA is also effective in improving survival in models of systemic S. aureus and C. albicans infection. Mice treated with MPLA (20 μg) after a 20% cutaneous burn received intravenous challenge with S. aureus or C. albicans (1×10^8 CFU) on day 5 post-burn (FIG. 2).

[4] = infusion; not at lower doses; cited from earlier work
Staphylococcus aureus = test: Systemic S. aureus infection after MPLA or PHADs (FIG. 8); assay type: in vivo, mice; conditions: 20 μg/mouse on day 0 and day 1; S. aureus 1×10^8 intravenously on day 2
Procedure: FIG. 8. PHADs induce bacterial clearance and promote survival post systemic S. aureus infection. […] (B) In one set of experiments, mice were euthanized at 72 hours post-infection and lung, spleen, and kidney tissues were harvested to measure bacterial burden. (C) In a separate set of experiments, mice underwent the same treatment with MPLA or PHADs, followed by infection with S. aureus. However, this group is monitored for 14 days to assess for survival. *p<0.05 compared to vehicle. N=13-16/group in the 3 day clearance experiments, performed in quadruplicate, and n=9-10/group, performed in triplicate.
In addition, mice were analyzed for survival after intravenous Staphylococcus aureus infection with treatment of MPLA or PHADs. At Day 0, mice were treated with vehicle, MPLA or PHADs (20 μg/mouse). At Day 1, mice were treated with vehicle, MPLA or PHADs (20 μg/mouse). At Day 2, mice were infected with Staphylococcus aureus (1×10^8 intravenously) and followed for survival.

P. aeruginosa [5] = test: Pseudomonas pneumonia in burned sheep treated with MPLA (FIG. 14); assay type: in vivo
Procedure: FIG. 14. MPLA treatment improves oxygenation and pulmonary mechanics and attenuates lactate production in sheep with Pseudomonas pneumonia. Studies were undertaken to assess oxygenation, pulmonary mechanics and hemodynamics in burned sheep treated with vehicle or MPLA prior to intrapulmonary challenge with P. aeruginosa. Sheep received a 20% total body surface area thermal burn followed 24 hours later by MPLA infusion. Intrapulmonary P. aeruginosa infection was induced at 24 hours after MPLA infusion. […] Hemodynamics and pulmonary function were measured for 24 hours after Pseudomonas infection.

[6] = MPLA 5 ug/kg, 24 hours after 20% burn
[7] = MPLA 2.5 micrograms/kg (FIG. 7 legend)

Monophosphoryl Lipid A [MPLA]
cardiac index, mean arterial pressure, central venous pressure, stroke volume, systemic vascular resistance, peak and pause airway pressures and PaO2/FiO2 ratio [1, 6]: not significantly changed | heart rate and pulmonary artery pressure [1, 6]: not significantly altered | increase in core temperature ([1]; MPLA 5 ug/kg, 24 hours after 20% burn, transient, at 1 hour after start of infusion): 1 °C | cardiac index (CI), central venous pressure (CVP) and systemic vascular resistance (SVRI) [1, 7]: minimally impacted | mean arterial blood pressure (MAP) [1, 7]: significantly decreased at 45 and 60 minutes | time of peak core body temperature after initiation of infusion [1, 7]: 75 min | core body temperature ([1]; MPLA 2.5 micrograms/kg (FIG. 7 legend), from 45 minutes, still elevated at 2 hours): increased core body temperature | heart rate (HR) ([1]; MPLA 2.5 micrograms/kg (FIG. 7 legend), returned to baseline at 90 minutes): significantly increased at 30-75 minutes | safe dose ([1]; burned sheep, infusion over 10 minutes): 5 µg/kg | bacterial burden (peritoneal cavity) (P. aeruginosa [2]; 6 hours after challenge): decreased bacterial burden | neutrophil and monocyte recruitment to the site of infection (P. aeruginosa [2]; 6 hours after challenge): markedly enhanced | infection-induced hypothermia (P. aeruginosa [2]): attenuated infection-induced hypothermia | ATP production [3]: enhances ATP production | macrophage metabolism: glycolysis and oxygen consumption [3]: increased glycolysis and oxygen consumption | mitochondrial biogenesis [3]: enhances | infection-induced hypothermia (S. aureus; FIG. 2 C-F, H): attenuated infection-induced hypothermia | kidney injury (S. aureus; FIG. 2 C-F, H): less kidney injury | plasma cytokine concentrations (S. aureus; FIG. 2 C-F, H): lower plasma cytokine concentrations | survival (S. aureus; intravenous S. aureus 1×10^8 CFU): 90% | MPLA dose at which humans show subjective changes consistent with systemic inflammation [4]: 10 µg/kg | survival (Staphylococcus aureus): improved survival | oxygenation (PaO2/FiO2 ratio, oxygenation index, shunt fraction) (P. aeruginosa [5]; 24 hours after Pseudomonas infection, compared to controls): significantly better | survival (P. aeruginosa [5]; 72 hour study period): All sheep survived | PaCO2 (P. aeruginosa [5]; MPLA vs vehicle): not significantly different between groups | decrease in plasma protein caused by pulmonary infection (P. aeruginosa [5]; MPLA vs vehicle, difference not significant): trended towards attenuation | plasma lactate concentration (P. aeruginosa [5]; compared to controls): significantly lower
